This passage reports IC50 results from patent US8609653B2, “Azaindole compounds and methods for treating HIV” (priority 2011, dated 2013).

This test concerns HIV. As to the kind of experiment: MT4 assay: antiviral HIV activity in MT-4 cells. Conditions: Human immunodeficiency virus 1, MT4, 96 h, read-out: HIV MT4 Assay IC50 (μM), HTLV-1 transformed cell line MT-4; read-out 96 hours later with cell titer glo; 10 point dose response. In kind it is cell-based. An outline of the steps: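 Compounds tested in HTLV-1-transformed MT-4 cells for protection from HIV, with cytotoxicity run in parallel under the same conditions; CellTiter-Glo luminescence read 96 h later. IC50 from 10-point, 3–4-fold serial dilutions spanning >1000-fold, % inhibition relative to no-compound control, fitted by four-parameter logistic.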
Background: Cellular ATP, detected with luciferase, serves as a proxy for viable cell number.

By IC50 is commonly meant the concentration that gives 50% inhibition. Turning to `Cc1nc2c(ccn2Cc2cccc(Cl)c2F)c(-c2ccc3c(c2)CCCO3)c1C(OC(C)(C)C)C(=O)O` (stereo not drawn) [Example 40, 2-(tert-butoxy)-2-(1-(3-chloro-2-fluorobenzyl)-4-(chroman-6-yl)-6-methyl-1H-pyrrolo[2,3-b]pyridin-5-yl)acetic acid], the IC50 is 0.125 µM.
The result for `Cc1nc2c(ccn2Cc2ccc(C(F)(F)F)o2)c(-c2ccc3c(c2)CCCO3)c1C(OC(C)(C)C)C(=O)O` (stereo not drawn) [Example 41] reads 0.1 µM; that for `Cc1nc2c(ccn2CCc2ccc(F)cc2)c(-c2ccc3c(c2)CCCO3)c1C(OC(C)(C)C)C(=O)O` (stereo not drawn) [Example 42, 2-(tert-butoxy)-2-(4-(chroman-6-yl)-1-(4-fluorophenethyl)-6-methyl-1H-pyrrolo[2,3-b]pyridin-5-yl)acetic acid], 0.58 µM.
For `Cc1nc2c(ccn2Cc2ccccc2)c(-c2ccc3c(c2)CCCO3)c1C(OC(C)(C)C)C(=O)O` (stereo not drawn) [Example 43, 2-(1-benzyl-4-(chroman-6-yl)-6-methyl-1H-pyrrolo[2,3-b]pyridin-5-yl)-2-(tert-butoxy)acetic acid] the value was 0.084 µM; for `Cc1nc2c(ccn2Cc2c(F)cc(F)cc2F)c(-c2ccc3c(c2)CCCO3)c1C(OC(C)(C)C)C(=O)O` (stereo not drawn) [Example 44, 2-(tert-butoxy)-2-(4-(chroman-6-yl)-6-methyl-1-(2,4,6-trifluorobenzyl)-1H-pyrrolo[2,3-b]pyridin-5-yl)acetic acid], 0.053 µM; for `COc1ccc(Cn2ccc3c(-c4ccc5c(c4)CCCO5)c(C(OC(C)(C)C)C(=O)O)c(C)nc32)cc1F` (stereo not drawn) [Example 45, 2-(tert-butoxy)-2-(4-(chroman-6-yl)-1-(3-fluoro-4-methoxybenzyl)-6-methyl-1H-pyrrolo[2,3-b]pyridin-5-yl)acetic acid], 0.055 µM.
As to `COc1ccc(F)c(F)c1Cn1ccc2c(-c3ccc(C)cc3)c(C(OC(C)(C)C)C(=O)O)c(C)nc21` (stereo not drawn) [Example 46, 2-(tert-butoxy)-2-(1-(2,3-difluoro-6-methoxybenzyl)-6-methyl-4-(p-tolyl)-1H-pyrrolo[2,3-b]pyridin-5-yl)acetic acid], the IC50 turned out to be 0.1 µM.
For `Cc1nc2c(ccn2Cc2ccc(F)cc2Cl)c(-c2ccc3c(c2)CCCO3)c1[C@@H](OC(C)(C)C)C(=O)O` [Example 47, (R)-2-(tert-butoxy)-2-(1-(2-chloro-4-fluorobenzyl)-4-(chroman-6-yl)-6-methyl-1H-pyrrolo[2,3-b]pyridin-5-yl)acetic acid] the value was 50 µM; for `Cc1nc2c(ccn2Cc2ccc(F)cc2Cl)c(-c2ccc3c(c2)CCCO3)c1[C@H](OC(C)(C)C)C(=O)O` [Example 48, (S)-2-(tert-butoxy)-2-(1-(2-chloro-4-fluorobenzyl)-4-(chroman-6-yl)-6-methyl-1H-pyrrolo[2,3-b]pyridin-5-yl)acetic acid], 0.03 µM.
For `Cc1ccc(-c2c(C(OC(C)(C)C)C(=O)O)c(C)nc3c2ccn3Cc2c(Cl)ccc(F)c2F)cc1` (stereo not drawn) [Example 49, 2-(tert-butoxy)-2-(1-(6-chloro-2,3-difluorobenzyl)-6-methyl-4-(p-tolyl)-1H-pyrrolo[2,3-b]pyridin-5-yl)acetic acid] the value was 0.123 µM; for `Cc1nc2c(ccn2Cc2c(Cl)cccc2Cl)c(-c2ccc3c(c2)CCCO3)c1C(OC(C)(C)C)C(=O)O` (stereo not drawn) [Example 50, 2-(tert-butoxy)-2-(4-(chroman-6-yl)-1-(2,6-dichlorobenzyl)-6-methyl-1H-pyrrolo[2,3-b]pyridin-5-yl)acetic acid], 0.035 µM.
The result for `Cc1nc2c(ccn2Cc2c(F)cccc2F)c(-c2ccc3c(c2)CCCO3)c1C(OC(C)(C)C)C(=O)O` (stereo not drawn) [Example 51, 2-(tert-butoxy)-2-(4-(chroman-6-yl)-1-(2,6-difluorobenzyl)-6-methyl-1H-pyrrolo[2,3-b]pyridin-5-yl)acetic acid] reads 0.09 µM.
On to `COc1ccc(Cn2ccc3c(-c4ccc5c(c4)CCCO5)c(C(OC(C)(C)C)C(=O)O)c(C)nc32)cc1C(F)(F)F` (stereo not drawn) [Example 52, 2-(tert-butoxy)-2-(4-(chroman-6-yl)-1-(4-methoxy-3-(trifluoromethyl)benzyl)-6-methyl-1H-pyrrolo[2,3-b]pyridin-5-yl)acetic acid], for which the IC50 stood at 0.37 µM.
For `Cc1ccc(F)c(Cn2ccc3c(-c4ccc5c(c4)CCCO5)c(C(OC(C)(C)C)C(=O)O)c(C)nc32)c1Cl` (stereo not drawn) [Example 53, 2-(tert-butoxy)-2-(1-(2-chloro-6-fluoro-3-methylbenzyl)-4-(chroman-6-yl)-6-methyl-1H-pyrrolo[2,3-b]pyridin-5-yl)acetic acid] the value was 0.055 µM; for `Cc1ccc(F)cc1Cn1ccc2c(-c3ccc4c(c3)CCCO4)c(C(OC(C)(C)C)C(=O)O)c(C)nc21` (stereo not drawn) [Example 54, 2-(tert-butoxy)-2-(4-(chroman-6-yl)-1-(5-fluoro-2-methylbenzyl)-6-methyl-1H-pyrrolo[2,3-b]pyridin-5-yl)acetic acid], 0.045 µM; for `COc1cccc(F)c1Cn1ccc2c(-c3ccc4c(c3)CCCO4)c(C(OC(C)(C)C)C(=O)O)c(C)nc21` (stereo not drawn) [Example 55, 2-(tert-butoxy)-2-(4-(chroman-6-yl)-1-(2-fluoro-6-methoxybenzyl)-6-methyl-1H-pyrrolo[2,3-b]pyridin-5-yl)acetic acid], 0.021 µM.
For the molecule `Cc1nc2c(ccn2Cc2c(F)cccc2Cl)c(-c2ccc3c(c2)CCCO3)c1C(OC(C)(C)C)C(=O)O` (stereo not drawn) [Example 56, 2-(tert-butoxy)-2-(1-(2-chloro-6-fluorobenzyl)-4-(chroman-6-yl)-6-methyl-1H-pyrrolo[2,3-b]pyridin-5-yl)acetic acid], the IC50 turned out to be 0.025 µM.
For `Cc1nc2c(ccn2Cc2cccc(F)c2F)c(-c2ccc3c(c2)CCCO3)c1[C@H](OC(C)(C)C)C(=O)O` [Example 57, (S)-2-(tert-butoxy)-2-(4-(chroman-6-yl)-1-(2,3-difluorobenzyl)-6-methyl-1H-pyrrolo[2,3-b]pyridin-5-yl)acetic acid] the value was 0.027 µM; for `Cc1nc2c(ccn2Cc2cc(F)ccc2F)c(-c2ccc3c(c2)CCCO3)c1[C@H](OC(C)(C)C)C(=O)O` [Example 58, (S)-2-(tert-butoxy)-2-(4-(chroman-6-yl)-1-(2,5-difluorobenzyl)-6-methyl-1H-pyrrolo[2,3-b]pyridin-5-yl)acetic acid], 0.08 µM.
On to `Cc1nc2c(ccn2Cc2ccc(C(F)(F)F)cc2F)c(-c2ccc3c(c2)CCCO3)c1C(OC(C)(C)C)C(=O)O` (stereo not drawn) [Example 59, 2-(tert-butoxy)-2-(4-(chroman-6-yl)-1-(2-fluoro-4-(trifluoromethyl)benzyl)-6-methyl-1H-pyrrolo[2,3-b]pyridin-5-yl)acetic acid], for which the IC50 stood at 0.38 µM.
On to `Cc1nc2c(ccn2Cc2cccc(OC(F)(F)F)c2)c(-c2ccc3c(c2)CCCO3)c1C(OC(C)(C)C)C(=O)O` (stereo not drawn) [Example 60, 2-(tert-butoxy)-2-(4-(chroman-6-yl)-6-methyl-1-(3-(trifluoromethoxy)benzyl)-1H-pyrrolo[2,3-b]pyridin-5-yl)acetic acid], for which the IC50 was 0.181 µM.
The result for `COc1cccc(Cn2ccc3c(-c4ccc5c(c4)CCCO5)c(C(OC(C)(C)C)C(=O)O)c(C)nc32)c1` (stereo not drawn) [Example 61, 2-(tert-butoxy)-2-(4-(chroman-6-yl)-1-(3-methoxybenzyl)-6-methyl-1H-pyrrolo[2,3-b]pyridin-5-yl)acetic acid] reads 0.41 µM; that for `Cc1nc2c(ccn2Cc2ccc(-n3cncn3)cc2)c(-c2ccc3c(c2)CCCO3)c1C(OC(C)(C)C)C(=O)O` (stereo not drawn) [Example 62, 2-(1-(4-(1H-1,2,4-triazol-1-yl)benzyl)-4-(chroman-6-yl)-6-methyl-1H-pyrrolo[2,3-b]pyridin-5-yl)-2-(tert-butoxy)acetic acid], 0.98 µM; that for `Cc1ccc(-c2c(C(OC(C)(C)C)C(=O)O)c(C)nc3c2ccn3Cc2ccc(C(F)(F)F)cc2)cc1` (stereo not drawn) [Example 63, 2-(tert-butoxy)-2-(6-methyl-4-(p-tolyl)-1-(4-(trifluoromethyl)benzyl)-1H-pyrrolo[2,3-b]pyridin-5-yl)acetic acid], 3.96 µM.
For `Cc1nc2c(ccn2Cc2ccc(OC(F)(F)F)cc2)c(-c2ccc3c(c2)CCCO3)c1C(OC(C)(C)C)C(=O)O` (stereo not drawn) [Example 64, 2-(tert-butoxy)-2-(4-(chroman-6-yl)-6-methyl-1-(4-(trifluoromethoxy)benzyl)-1H-pyrrolo[2,3-b]pyridin-5-yl)acetic acid] the value was 0.68 µM.
For `Cc1nc2c(ccn2CC2CCCCC2)c(-c2ccc3c(c2)CCCO3)c1C(OC(C)(C)C)C(=O)O` (stereo not drawn) [Example 65, 2-(tert-butoxy)-2-(4-(chroman-6-yl)-1-(cyclohexylmethyl)-6-methyl-1H-pyrrolo[2,3-b]pyridin-5-yl)acetic acid] the value was 0.59 µM; for `Cc1nc2c(ccn2CC2CCN(C(=O)OC(C)(C)C)CC2)c(-c2ccc3c(c2)CCCO3)c1C(OC(C)(C)C)C(=O)O` (stereo not drawn) [Example 66, 2-(tert-butoxy)-2-(1-((1-(tert-butoxycarbonyl)piperidin-4-yl)methyl)-4-(chroman-6-yl)-6-methyl-1H-pyrrolo[2,3-b]pyridin-5-yl)acetic acid], 7.34 µM.
For the molecule `Cc1nc2c(ccn2CC2CCOCC2)c(-c2ccc3c(c2)CCCO3)c1C(OC(C)(C)C)C(=O)O` (stereo not drawn) [Example 67, 2-(tert-butoxy)-2-(4-(chroman-6-yl)-6-methyl-1-((tetrahydro-2H-pyran-4-yl)methyl)-1H-pyrrolo[2,3-b]pyridin-5-yl)acetic acid], the IC50 is 0.59 µM.
For `Cc1nc2c(ccn2CC2CCC2)c(-c2ccc3c(c2)CCCO3)c1C(OC(C)(C)C)C(=O)O` (stereo not drawn) [Example 68, 2-(tert-butoxy)-2-(4-(chroman-6-yl)-1-(cyclobutylmethyl)-6-methyl-1H-pyrrolo[2,3-b]pyridin-5-yl)acetic acid] the value was 0.72 µM; for `Cc1ccc(-c2c(C(OC(C)(C)C)C(=O)O)c(C)nc3c2ccn3Cc2ccc(F)c(C(F)(F)F)c2)cc1` (stereo not drawn) [Example 69, 2-(tert-butoxy)-2-(1-(4-fluoro-3-(trifluoromethyl)benzyl)-6-methyl-4-(p-tolyl)-1H-pyrrolo[2,3-b]pyridin-5-yl)acetic acid], 0.25 µM.
